Values of other authors in patent US20070293534A1, “Process for the preparation of mivacurium chloride” (FARMABIOS S.P.A., priority 2006, published 2007).

Details: for neuromuscolar blocking potencies compared with each other: trans-trans versus cis-trans diastereoisomer

Row | Compound | neuromuscolar blocking potency relative to the other two diastereoisomers (fraction of the potency of the trans-trans and cis-trans diastereoisomers, estimated) | neuromuscolar blocking potencies compared with each other
1 | COc1cc2c(cc1OC)[C@@H](Cc1cc(OC)c(OC)c(OC)c1)[N@@+](C)(CCCOC(=O)CC/C=C/CCC(=O)OCCC[N@@+]1(C)CCc3cc(OC)c(OC)cc3[C@H]1Cc1cc(OC)c(OC)c(OC)c1)CC2.[Cl-].[Cl-] (single isomer, unassigned) [cis-cis diastereoisomer] | approximately one tenth | 
2 | COc1cc2c(cc1OC)[C@@H](Cc1cc(OC)c(OC)c(OC)c1)[N@@+](C)(CCCOC(=O)CC/C=C/CCC(=O)OCCC[N@+]1(C)CCc3cc(OC)c(OC)cc3[C@H]1Cc1cc(OC)c(OC)c(OC)c1)CC2.[Cl-].[Cl-] [cis-trans] |  | not significantly different from each other
3 | COc1cc2c(cc1OC)[C@@H](Cc1cc(OC)c(OC)c(OC)c1)[N@+](C)(CCCOC(=O)CC/C=C/CCC(=O)OCCC[N@+]1(C)CCc3cc(OC)c(OC)cc3[C@H]1Cc1cc(OC)c(OC)c(OC)c1)CC2.[Cl-].[Cl-] [trans-trans] |  | not significantly different from each other
